Data from ChEMBL document CHEMBL2406917, “Phaeolschidins A-E, five hispidin derivatives with antioxidant activity from the fruiting body of Phaeolus schweinitzii collected in the Tibetan Plateau” (J Nat Prod, 2013).
Calls of active or inactive are those of the source. The rule behind the calls is not given here.

What was measured:
[1] = Total antioxidant capacity of the compound at 200 uM relative to control; format: physicochemical
[2] = tested on: Radical scavenging activity; assay: Antioxidant activity assessed as DPPH free radical scavenging activity after 30 mins; format: functional
SW480 = assay: Cytotoxicity against human SW480 cells up to 200 uM by MTT assay; format: cell-based
Liver [3] = assay: Antioxidant activity against Fe2+/ascorbic acid-induced lipid peroxidation in mouse liver homogenates assessed as total MDA level at 200 uM after 1.5 hrs; format: functional, tissue-based
[4] = Total antioxidant capacity of the compound at 25 uM relative to control; format: physicochemical
Liver [5] = assay: Antioxidant activity against Fe2+/ascorbic acid-induced lipid peroxidation in mouse liver homogenates after 1.5 hrs; format: functional, tissue-based
HCT-116 = assay: Cytotoxicity against human HCT116 cells up to 200 uM by MTT assay; format: cell-based
[6] = Total antioxidant capacity of the compound at 50 uM relative to control; format: physicochemical
[7] = Total antioxidant capacity of the compound at 100 uM relative to control; format: physicochemical

SMILES	TAC [1] [U]	IC50 [2] [µM]	TAC [4] [U]	IC50 (Liver [5]) [µM]	TAC [6] [U]	TAC [7] [U]	Activity (SW480)	Activity (Liver [3])	Activity (HCT-116)
CC(C)C(c1c(O)cc(/C=C/c2ccc(O)c(O)c2)oc1=O)c1c(O)cc(/C=C/c2ccc(O)c(O)c2)oc1=O	5.39	> 200	2.1	> 200	2.88	4.8	Non-toxic	Active	Non-toxic
O=c1cc(O)cc(/C=C/c2ccc(O)c(O)c2)o1 [HISPIDIN]	10.25	58.8	5.83	> 200	9.27	10.03	Non-toxic	Active	Non-toxic
COC(=O)CCC(c1c(O)cc(/C=C/c2ccc(O)c(O)c2)oc1=O)c1c(O)cc(/C=C/c2ccc(O)c(O)c2)oc1=O	11.06	95.3	3	–	3.4	6.5	Non-toxic	–	Non-toxic
O=C1O[C@H]([C@@H](O)CO)C(O)=C1O [ASCORBIC ACID]	21.68	–	17.33	–	17.42	18.97	–	–	–
CC(c1c(O)cc(/C=C/c2ccc(O)c(O)c2)oc1=O)c1c(O)cc(/C=C/c2ccc(O)c(O)c2)oc1=O [PINILLIDINE]	5.16	> 200	2.02	> 200	2.67	3.46	Non-toxic	Active	Non-toxic

Second part, led by results:

TAC [1] [U]	IC50 [2] [µM]	TAC [4] [U]	IC50 (Liver [5]) [µM]	TAC [6] [U]	TAC [7] [U]	SMILES	Activity (SW480)	Activity (Liver [3])	Activity (HCT-116)
10.74	88.7	6.82	–	8.41	9.74	O=C(O)CCC(c1c(O)cc(/C=C/c2ccc(O)c(O)c2)oc1=O)c1c(O)cc(/C=C/c2ccc(O)c(O)c2)oc1=O	Non-toxic	–	Non-toxic
10.81	95.9	3.61	> 200	5.28	7.6	CC(C)CC(c1c(O)cc(/C=C/c2ccc(O)c(O)c2)oc1=O)c1c(O)cc(/C=C/c2ccc(O)c(O)c2)oc1=O	Non-toxic	Active	Non-toxic
6.91	> 200	2.41	–	2.78	4.24	O=C1CC(c2c(O)cc(/C=C/c3ccc(O)c(O)c3)oc2=O)CN1 (stereo unspecified)	Non-toxic	–	Non-toxic
